Values after ≈ are worked out from the molar mass of the structure shown.
How the values were obtained:
[1] = pKa of acid and protonated amine groups / ionization at reaction pH; type: physicochemical; conditions: calculated, reaction mixture pH of between 9 and 10
[2] = physchem; conditions: 20 mm phosphate buffer, pH 7, aqueous buffer
[3] = Solubility of dinitrile in the aqueous cell suspension; type: physicochemical; conditions: aqueous cell suspension of Acidovorax facilis 72W, two-phase above this concentration; read-out: concentration above which the solubility of the dinitrile was exceeded
[4] = cited from earlier work
[5] = Lange's Handbook of Chemistry, 14th edn.

N.NCCCCCC(=O)O [6-aminocaproic acid ammonium salt]
fraction of amine groups protonated [1]: approximately half

N#CCCCCC#N [adiponitrile]
solubility [2]: ~600 mM (≈ 64.9 mg/mL)

C=C(C#N)CCC#N [2-methyleneglutaronitrile]
solubility [3]: ≤ 400 mM

CN [methylamine]
pKa for the protonated amine (methylamine) ([4]; in water): 10.62

NCCCCCC(=O)O [6-aminocaproic acid]
fraction existing in solution as the ammonium salt of the carboxylic acid [1]: at least 99.997% | pKa of the carboxylic acid group [4, 5]: 4.373 | pKa of the protonated amine group [4, 5]: 10.804

— patent US5858736A, “Preparation of lactams from aliphatic α,ω-dinitriles” (priority 1996, dated 1999)
